Results: article PMC3710259, “Experimental detection of proteolytic activity in a signal peptide peptidase of Arabidopsis thaliana” (BMC Biochemistry, 2013)

Key:
native human SPP (HsSPP) = molecular target: T1, native human SPP (HsSPP) (Homo sapiens, UniProt Q8TCT9); experiment: gel immunoblot cleavage assay of myc-Prl-PP-FLAG with DDM-solubilised membranes; assay type: biochemical; conditions: 1 μM myc-Prl-PP-FLAG substrate, 0.25% DDM, 37°C; 10 μM inhibitor
T1 construct: gene HM13; endogenous, untagged, in DDM-solubilised membrane fraction of HEK293T cells
T1 sequence (Q8TCT9 1-377): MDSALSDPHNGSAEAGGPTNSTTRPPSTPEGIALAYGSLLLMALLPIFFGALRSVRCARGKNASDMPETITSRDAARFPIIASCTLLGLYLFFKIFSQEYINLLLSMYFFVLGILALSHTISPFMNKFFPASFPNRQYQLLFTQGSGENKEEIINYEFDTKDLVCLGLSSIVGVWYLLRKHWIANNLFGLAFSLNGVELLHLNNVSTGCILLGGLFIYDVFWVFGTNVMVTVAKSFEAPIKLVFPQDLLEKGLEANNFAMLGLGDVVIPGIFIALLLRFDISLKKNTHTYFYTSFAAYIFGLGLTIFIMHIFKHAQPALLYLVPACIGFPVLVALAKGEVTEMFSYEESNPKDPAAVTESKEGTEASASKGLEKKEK

AtSPP-GFP = molecular target: T2, AtSPP-GFP (Arabidopsis thaliana, UniProt O81062); experiment: as above; assay type: biochemical; conditions: 1 μM myc-Prl-PP-FLAG substrate, 0.25% DDM, 37°C, 15 h; 50 μM inhibitor
T2 construct: gene SPP; full length with C-terminal yEGFP-octa-His tag kept, expressed in Saccharomyces cerevisiae BY2777; DDM-solubilised yeast membranes; estimated 65 kDa
T2 sequence (O81062 1-344): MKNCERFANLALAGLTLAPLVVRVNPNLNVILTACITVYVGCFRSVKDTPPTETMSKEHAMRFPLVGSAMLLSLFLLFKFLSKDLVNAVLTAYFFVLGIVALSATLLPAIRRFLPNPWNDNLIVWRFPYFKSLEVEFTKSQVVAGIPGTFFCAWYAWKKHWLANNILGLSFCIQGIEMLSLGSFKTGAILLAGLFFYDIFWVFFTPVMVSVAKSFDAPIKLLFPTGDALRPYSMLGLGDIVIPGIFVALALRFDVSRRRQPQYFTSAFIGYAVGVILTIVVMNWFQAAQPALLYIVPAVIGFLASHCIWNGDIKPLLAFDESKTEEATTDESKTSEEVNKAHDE

## CC(C)C[C@H](NC(=O)OCc1ccccc1)C(=O)N[C@@H](CC(C)C)C(=O)NCC(=O)CNC(=O)[C@H](CC(C)C)NC(=O)[C@H](CC(C)C)NC(=O)OCc1ccccc1 [(Z-LL)2-ketone, 1,3-di-(N-carboxybenzoyl-L-leucyl-L-leucyl) amino acetone]
Native human SPP (HsSPP)
  inhibition at 10 μM: the SPP was inhibited by the (Z-LL)2-ketone
AtSPP-GFP
  inhibition at 50 μM: rate of proteolytic activity of AtSPP-GFP was weak, the activity was inhibited by the (Z-LL)2-ketone
